The data set is described as follows: Various In Vitro Cell Biology Assays (Example 41, Tables 23-26). In kind it is cell-based. The following applies: for inhibition at 3 µM: PBMC, read-out: % Inhibition of Control Values; for inhibition at 3 µM / % Inhibition of Control Values / cytotoxicity at 24 h: 3×10^−6 M; for cytotoxicity at 24 h: human, Cell viability (h) (PBMC/24 h), MTT; for pIC50: TNF-α secretion (h) (PBMC). Here is the method: In each experiment, the respective reference compound was tested concurrently with the test compounds in order to assess the assay suitability. It was tested at several concentrations (for IC50 value determination).
The test compounds were assayed at 3×10^−6 M.
Results. The results are expressed as a percent of control values and as a percent inhibition of control values obtained in the presence of the test compounds.
The IC50 values (concentration causing a half-maximal inhibition of control values) and Hill coefficients (nH) were determined by non-linear regression analysis of the inhibition curves using Hill equation curve fitting, a summary of the data is shown in Table 26. The IC50 value for each reference compound is indicated was determined (data not shown) and was within accepted limits of the historic average ±0.5 log units.

The mark [1] stands for this setting: 24 h, IL-8 secretion (h) (PBMC), LPS 1 μg/ml, 24 h.
Setting [2] is: 48 h, IL-2 secretion (h) (PBMC), PHA 20 μg/ml, 48 h.
Setting [3] is: 48 h, IL-10 secretion (h) (PBMC), PHA 3 μg/ml, 48 h.
The mark [4] stands for this setting: IL-6 secretion (h) (PBMC), LPS 1 μg/ml, 24 h.
Setting [5] is: 24 h, IL-6 secretion (h) (PBMC), LPS 1 μg/ml, 24 h.
Setting [6] is: 24 h, IL-1 □ secretion (h) (PBMC), LPS 1 μg/ml, 24 h.
Where [7] appears, read: 24 h, IFN-γ secretion (h) (PBMC), PHA 2 μg/ml, 24 h.
[8] abbreviates: 48 h, IL-4 secretion (h) (PBMC), ConA 20 μg/ml, 48 h.

pIC50: −log10 of the molar value. Read-outs that look alike come from different tables or passages of the source.

The values below come from patent US20090264384A1, “INDOLE, BENZIMIDAZOLE, AND BENZOLACTAM BORONIC ACID COMPOUNDS, ANALOGS THEREOF AND METHODS OF USE THEREOF” (Nuada, Inc., priority 2004, published 2009).

Usually inhibition stands for the change of the read-out against control, counted positive when it falls. With `N#Cc1ncnc2c1ncn2CCCCCB(O)O` [drawing 104], the inhibition at 3 µM under setting [1] is -33%.

For `OB(O)CCCCn1c(C(F)(F)F)nc2ccccc21` [drawing 82], the inhibition at 3 µM under setting [2] turned out to be 72%.

`OB(O)CCCCn1c(C(F)(F)F)nc2ccccc21` [drawing 96]: the inhibition at 3 µM under setting [3] amounted to 17%.

Regarding `OB(O)CCCCCn1c(-c2cscn2)nc2ccccc21` [CCI-7034], the cytotoxicity at 24 h was -9%. In addition, the “% Inhibition of Control Values” under setting [4] is reported as −89%. Besides, the inhibition at 3 µM under setting [1] was -32%. Besides, the inhibition at 3 µM under setting [3] was 42%.

Regarding `C[C@@H]1CC2C3CCC4=CC(=O)C=CC4(C)C3(F)[C@@H](O)CC2(C)C1(O)C(=O)CO` (some centres unmarked) [drawing 83], under setting [2], the inhibition at 3 µM worked out at 18%.

As to `N#Cc1ncnc2c1ncn2CCCCCB(O)O` [drawing 94], the inhibition at 3 µM under setting [5] is -30%.

With `OB(O)CCCCCn1c(-c2cscn2)nc2ccccc21` [drawing 90], the “% Inhibition of Control Values” under setting [4] is −61%.

For orientation: pIC50 means the negative decadic logarithm of the IC50, by convention in mol/L. A higher pIC50 goes with a small IC50. On to `C[C@@H]1CC2C3CCC4=CC(=O)C=CC4(C)C3(F)[C@@H](O)CC2(C)C1(O)C(=O)CO` (some centres unmarked) [drawing 114], for which the pIC50 (LPS 1 μg/ml, 24 h) is 7.44.

`OB(O)CCCCn1c(C(F)(F)F)nc2ccccc21` [drawing 91]: the inhibition at 3 µM under setting [5] was -26%.

In the case of `N#Cc1ncnc2c1ncn2CCCCCB(O)O` [drawing 79], the inhibition at 3 µM under setting [6] is -66%.

As to `N#Cc1ccc2c(ccn2CCCCCB(O)O)c1` [drawing 70], the inhibition at 3 µM under setting [7] was 16%.

For `Nc1nc(Cl)c2ncn(CCCCCB(O)O)c2n1` [drawing 73], under setting [7], the inhibition at 3 µM came out at 56%.

As for `N#Cc1ccc2c(ccn2CCCCCB(O)O)c1` [drawing 112], where the note is “LPS 1 μg/ml, 24 h”, the negative-log IC50 (pIC50) is 5.82.

Take `OB(O)CCCCn1c(C(F)(F)F)nc2ccccc21` [drawing 71]: the inhibition at 3 µM under setting [7] was -6%.

Turning to `C[C@@H]1CC2C3CCC4=CC(=O)C=CC4(C)C3(F)[C@@H](O)CC2(C)C1(O)C(=O)CO` (some centres unmarked) [drawing 92], the “% Inhibition of Control Values” under setting [4] is listed as 57%.

In the case of `OB(O)CCCCn1c(C(F)(F)F)nc2ccccc21` [drawing 101], the inhibition at 3 µM under setting [1] is -29%.

As for `OB(O)CCCCCn1c(-c2cscn2)nc2ccccc21` [drawing 81], the inhibition at 3 µM under setting [2] came to 56%.

As to `OB(O)CCCCCn1c(-c2cscn2)nc2ccccc21` [drawing 111], the pIC50 (LPS 1 μg/ml, 24 h) is less than 5.52.

Regarding `OB(O)CCCCn1c(C(F)(F)F)nc2ccccc21` [drawing 106], the cytotoxicity at 24 h is -6%.

Consider `Nc1nc(Cl)c2ncn(CCCCCB(O)O)c2n1` [drawing 84], for which, under setting [2], the inhibition at 3 µM is 78%.

In the case of `N#Cc1ccc2c(ccn2CCCCCB(O)O)c1` [drawing 95], the inhibition at 3 µM under setting [3] was determined as 36%.

Turning to `N#Cc1ncnc2c1ncn2CCCCCB(O)O` [drawing 109], the cytotoxicity at 24 h was 5%.

For the compound `Nc1nc(Cl)c2ncn(CCCCCB(O)O)c2n1` [drawing 89], the inhibition at 3 µM under setting [8] is -30%.

`C[C@@H]1CC2C3CCC4=CC(=O)C=CC4(C)C3(F)[C@@H](O)CC2(C)C1(O)C(=O)CO` (some centres unmarked) [drawing 72]: the inhibition at 3 µM under setting [7] came to 68%.

For `Nc1nc(Cl)c2ncn(CCCCCB(O)O)c2n1` [drawing 103], the inhibition at 3 µM under setting [1] was determined as 8%.

On to `C[C@@H]1CC2C3CCC4=CC(=O)C=CC4(C)C3(F)[C@@H](O)CC2(C)C1(O)C(=O)CO` (some centres unmarked) [drawing 88], for which, under setting [8], the inhibition at 3 µM came out at 118%.

As to `OB(O)CCCCCn1c(-c2cscn2)nc2ccccc21` [drawing 75], the inhibition at 3 µM under setting [6] is -67%.

Turning to `C[C@@H]1CC2C3CCC4=CC(=O)C=CC4(C)C3(F)[C@@H](O)CC2(C)C1(O)C(=O)CO` (some centres unmarked) [drawing 102], the inhibition at 3 µM under setting [1] was determined as 67%.

`N#Cc1ncnc2c1ncn2CCCCCB(O)O` [drawing 74]: under setting [7], the inhibition at 3 µM came to 14%.

Turning to `C[C@@H]1CC2C3CCC4=CC(=O)C=CC4(C)C3(F)[C@@H](O)CC2(C)C1(O)C(=O)CO` (some centres unmarked) [drawing 78], under setting [6], the inhibition at 3 µM was -12%.

`Nc1nc(Cl)c2ncn(CCCCCB(O)O)c2n1` [drawing 108]: the cytotoxicity at 24 h was 6%.

Consider `N#Cc1ncnc2c1ncn2CCCCCB(O)O` [CCI-7048], for which the inhibition at 3 µM runs as follows: under setting [2], 23%; under setting [8], -45%.

With `N#Cc1ccc2c(ccn2CCCCCB(O)O)c1` [drawing 105], the cytotoxicity at 24 h was found to be 0%.

As to `N#Cc1ncnc2c1ncn2CCCCCB(O)O` [drawing 99], under setting [3], the inhibition at 3 µM stood at 13%.

As for `C[C@@H]1CC2C3CCC4=CC(=O)C=CC4(C)C3(F)[C@@H](O)CC2(C)C1(O)C(=O)CO` (some centres unmarked) [drawing 97], under setting [3], the inhibition at 3 µM worked out at 62%.

As to `OB(O)CCCCCn1c(-c2cscn2)nc2ccccc21` [drawing 69], the inhibition at 3 µM under setting [7] amounted to 21%.

On to `COc1ccc(-c2nc3ccccc3n2CCCCCB(O)O)cc1` [drawing 110], for which the pIC50 (LPS 1 μg/ml, 24 h) was 6.70.

Consider `C[C@@H]1CC2C3CCC4=CC(=O)C=CC4(C)C3(F)[C@@H](O)CC2(C)C1(O)C(=O)CO` (some centres unmarked) [drawing 107], for which the cytotoxicity at 24 h came out at 6%.

As for `N#Cc1ccc2c(ccn2CCCCCB(O)O)c1` [drawing 100], the inhibition at 3 µM under setting [1] was -63%.

As to `C[C@@H]1CC2C3CCC4=CC(=O)C=CC4(C)C3(F)[C@@H](O)CC2(C)C1(O)C(=O)CO` (some centres unmarked) [drawing 93], under setting [4], the “% Inhibition of Control Values” is −70%.
